According to patent US9884032B2, “Esters of short chains fatty acids for use in the treatment of immunogenic disorders” (priority 2012, dated 2018):
Values joined by “and” are separate entries in the source; they are usually repeats but may differ in a detail not shown here. Equal entries are not always repeated. “Also recorded” adds a separate entry of the source. Where two headings read alike, the source gives them in different places.

Legend:
Format in all cases: in vivo, BALB/c mice
[1] = system: airway eosinophilia; test: Propionate intranasal efficacy study, HDM asthma: BAL differential cell counts (Example 3); conditions: 100 mg/kg intranasally; all treatment regimes (pretreatment; pretreatment and priming; pretreatment, priming and challenge); day 14
Procedure: On days 0, 2, 4, 7, 8 and 11 mice were exposed to 15 ug of house dust mite extract (Greer) intranasally. On day 14, all mice were sacrificed and bronchoalveolar lavage (BAL) was performed with sterile PBS. The total number of macrophages (FIG. 3B), eosinophils (FIG. 3A), lymphocytes (FIG. 3C) and neutrophils (FIG. 3D) was determined by total and differential cell counts using standard morphological and cytochemical techniques.
BAL was performed by flushing the airways three times with 1 ml PBS. Total BAL cells were counted using a Coulter Counter (IG Instruments) and spun onto glass slides using a Cytospin 2 (Shandon Southern Products, Ltd.). Cells were then stained with Diff Quick staining set (Siemens-Dade Behring). Percentages of eosinophils, macrophages, lymphocytes and neutrophils were determined microscopically using standard morphological and cytochemical criteria.
Female BALB/c mice were purchased from Charles River Laboratories at 8 weeks of age. […] On days 0, 2, 4, 7, 8 and 11 mice were exposed to 15 μg of house dust mite extract (Greer) per nasal. On day 14, all mice were sacrificed and bronchoalveolar lavage (BAL) was performed with sterile PBS. The total number of macrophages, eosinophils, lymphocytes and neutrophils was determined by total and differential cell counts using standard morphological and cytochemical techniques. […]

[2] = system: Influenza A strain HK/PR8; conditions: for delta Ct / flu/β-actin: lungs day 5, individual mice; for flu/β-actin: Experiment 3
[3] = system: Influenza virus strain PR8; test: Propionate intranasal efficacy study, influenza: lung viral load by PCR (Example 1); conditions: 100 mg/kg intranasally on days -3, -1, 0; day 5 post infection; compared to saline
Procedure: On day 0 all mice were infected with Influenza virus strain PR8. On day 5 post infection, mice were sacrificed, lungs isolated and viral load determined by PCR.
Female BALB/c mice were purchased from Charles River Laboratories at 8 weeks of age. […] On day 0 mice were infected with 100 PFU of Influenza strain PR8 in 30 μl of PBS solution. On day 5 post infection, mice were sacrificed and lungs were removed and placed in Tri reagent solution. Total RNA was purified from cells obtained from whole lung tissue using Tri reagent. Real time PCR was carried out according to manufacturers instructions using the quantifast SYBR green RT-PCR kit (Qiagen). The following primers Influenza matrix protein primers were used: forward 5′-[…]-3′, reverse 5′-[…]-3′. B-actin primers forward 5′-[…]-3′, reverse 5′-[…]-3′ as previously described van Elden, L. J., M. Nijhuis, P. Schipper, R. Schuurman, A. M. van Loon. 2001. Simultaneous detection of influenza viruses A and B using real-time quantitative PCR. J. Clin. Microbiol. 39: 196-200.

[4] = system: metapneumonia virus A1 6621 (MPV); conditions: 100 mg/kg intranasally day -1 and 0; day 5 post infection

In the case of `CCC(=O)[O-].[Na+]` [sodium propionate], the “airway eosinophilia (BAL eosinophils)” value [1] is reported as “statistically significant reductions”, the “Flu titer at 1 mg/kg compared with the other doses” value ([2]; Experiment 1, doses 100, 10, 1 mg/kg i.n.) is reported as “lowest Flu titers” and the “delta Ct” value ([2]; Experiment 2, 0.01 mg/kg i.n. day 0, listed as NA Propionate, 0.01 mg/kg) is reported as 0.05776 and 0.1427 and 0.4687 and 0.01899 and 0.2875. For the same compound, the “delta Ct” value ([2]; Experiment 2, 0.1 mg/kg i.n. day 0, listed as NA Propionate, 0.1 mg/kg) was 0.3178 and 0.08239 and 0.2101 and 0.01484 and 0.2815, the “delta Ct” value ([2]; Experiment 2, 1 mg/kg i.n. day 0, listed as NA Propionate, 1 mg/kg) was 0.01819 and 0.02787 and 0.08699 and 0.009033 and 0.07967 and the “delta Ct” value ([2]; Experiment 2, 10 mg/kg i.n. day 0, listed as Na Propionate, 10 mg/kg) was 0.1146 and 0.03546 and 0.05123 and 0.1345. For the same compound, the “delta Ct” value ([2]; Experiment 2, 100 mg/kg i.n. day 0, listed as Na Propionate, 100 mg/kg) was 0.02338 and 0.01681 and 0.2248 and 0.2282, the “efficacy against influenza infection, dose titration” value ([2]; Experiment 2, dose of 0.1 mg/kg or less i.n.) was “lack of efficacy” and the “Flu titer / efficacy at 1 mg/kg compared with the other doses” value ([2]; Experiment 2, doses 100 to 0.01 mg/kg i.n.) was “highest efficacy; also recorded: lowest Flu titer”. For the same compound, the “efficacy against influenza infection, dose titration” value ([2]; Experiment 2, from 100 mg/kg to 1 mg/kg i.n.) was “trend towards efficacy”, the flu/β-actin ([2]; 100 mg/kg i.n. Day 0, listed as Na Propionate, 100 mg/kg) was 0.154 and 0.244 and 0.334 and 0.303 and the flu/β-actin ([2]; 100 mg/kg i.n. Day +1, listed as Na Propionate, 100 mg/kg) was 0.176 and 0.277 and 0.312 and 0.217. For the same compound, the “optimal dose, intranasal” value ([2]; mouse, in vivo) was 1 mg/kg, the “viral load in the lungs” value [3] was “markedly lower viral load” and the “protection against MPV infection” value [4] was “exhibits efficacy in the protection against MPV infection”.
